Source: US20110118353A1, “METHOD OF HORMONE SUPPRESSION IN HUMANS” (N. V. Organon, priority 2007, published 2011)

What was measured:
Format in all cases: in vivo, human
LH [1] = test: Experiment 1: single rising oral dose trial, serum LH (DELFIA); details: healthy male volunteers, single oral doses 0.5-30 mg, 0 to 12 hours post-dose, vs placebo
Method: (§1) A double-blind, cross-over, placebo controlled, single rising oral dose trial with compound 1 was carried out in healthy male volunteers to assess its tolerability, safety, pharmacokinetic and pharmacodynamic profile.
(§2) This was a double-blind, placebo-controlled, single rising oral dose study in 16 subjects. Each subject was assigned to one of 4 dosing groups and received 3 successive single oral doses of compound 1 and placebo in a four-way cross-over design. Subjects were male volunteers with a good physical and mental health, aged 18-45 years, body mass index […]. […]
(§3) LH and FSH were measured using a DELFIA assay. […] Testosterone was measured using a DELFIA testosterone assay; a solid phase fluoro-immuno-assay based on competition between Europium-labeled Testosterone and sample Testosterone.
(§4) Effect of treatment was characterised by calculating areas under the effect curve (AUE) over 0-4 h and 0-final assessment time periods. AUEs were calculated with the linear trapezoidal rule using protocol times. […] All measures were analysed using analysis of variance with factors subject and treatment and with the prevalue as covariate. A linear contrast on dose group was calculated with dose groups assigned in ascending order.

FSH [2] = test: Experiment 1: single rising oral dose trial, serum FSH (DELFIA); details: healthy male volunteers, single oral doses 0.5-30 mg, 0-12 h period; slower than LH
Method: as §1, §2, §3, §4

testosterone [3] = test: Experiment 1: single rising oral dose trial, serum testosterone (DELFIA); details: healthy male volunteers, single oral doses 0.5-30 mg, 0-12 h period; slower than LH
Method: as §1, §2, §3, §4

LH [4] = test: Experiment 2: single-dose crossover trial, serum LH (DELFIA); details: healthy male volunteers, single oral doses 5, 13, 20 mg
From the text: (§5) A single-dose, double-blind, placebo-controlled, randomized, crossover trial to evaluate visual effects of compound 1 in healthy male volunteers
(§6) This was a double-blind, placebo-controlled, four-period crossover study involving the administration of three single oral doses of compound 1 and placebo in 24 healthy male subjects. For each subject the compound 1 treatments were randomized in ascending order, each treatment period was separated by at least 3 days wash-out. Subjects were male volunteers with a good physical and mental health, aged 18-45 years, body mass index 18-28 kg/m^2.
(§7) A freeze dried cake of compound 1 (Batch No CW122) was reconstituted with de-ionized water BP and subsequently diluted with gelatin/mannitol to 50 mL solution for oral administration. Dose levels of compound 1 used in this trial were: 5 mg, 13 mg and 20 mg
(§8) Serum samples for LH, FSH and testosterone analysis were taken at time points: pre-dose and 20′, 45′, 1h10′, 1h35′, 2h, 2h25′, 2h50′, 3h15′, 4h, 6h, 8h, 12h, 16h and 24h post-dose. Serum was stored at −40° C.
(§9) LH and FSH were measured using a DELFIA assay. The DELFIA LH and DELFIA FSH assays are solid phase, two-site fluoroimmunometric assays based on the direct sandwich technique. Testosterone was measured using a DELFIA testosterone assay; a solid phase fluoro-immuno-assay based on competition between Europium-labeled Testosterone and sample Testosterone.
(§10) Descriptive statistics for serum FSH, LH and testosterone concentrations were calculated, both as absolute values and as percentage of baseline. In addition the following parameters were calculated: Cmin, tmin, Cmean,0-24, both Cmin and Cmean,0-24 were expressed in absolute values and as percentage of baseline. No formal statistical analysis was done on these PD parameters. Only descriptive statistics were calculated by dose. Furthermore, summary plots of the PD parameters versus treatment were made

FSH [5] = test: Experiment 2: single-dose crossover trial, serum FSH (DELFIA); details: healthy male volunteers, single oral doses 5, 13, 20 mg
From the text: as §5, §6, §7, §8, §9, §10

testosterone [6] = test: Experiment 2: single-dose crossover trial, serum testosterone (DELFIA); details: healthy male volunteers, single oral doses 5, 13, 20 mg
From the text: as §5, §6, §7, §8, §9, §10

LH [7] = test: Experiment 3: multiple oral dose study, serum LH (DELFIA); details: healthy male volunteers, 4, 8, 16 mg q.d. or 12 mg b.i.d. oral
From the text: (§11) A phase I, double-blind, placebo-controlled, parallel group, multiple oral dose and multiple ascending dose study with compound 1 in healthy male volunteers to assess the safety, tolerability, pharmacokinetics and pharmacodynamics of compound 1 after single, multiple and multiple ascending doses.
(§12) This was a single center, double-blind, placebo-controlled, parallel group design. A total of 40 subjects were randomized over 5 groups of 8 subjects; within each group 6 subjects received multiple oral doses of compound 1 and 2 subjects received placebo. Subjects were male volunteers with a good physical and mental health, aged 18-45 years, body mass index 18-28 kg/m^2.
(§13) Freeze dried cake of compound 1 (Batch No. CW 186) was supplied in 10 mL vials (50 mg active entity in 10 mL vials). The freeze dried cake was reconstituted with sterile de-ionized water B.P and subsequently diluted with sterile de-ionized water to a dose volume of 50 mL. […]
(§14) LH and FSH were measured using a DELFIA assay. […] Testosterone was measured using a DELFIA testosterone assay; a solid phase fluoro-immuno-assay based on competition between Europium-labeled Testosterone and sample Testosterone. […]

FSH [8] = test: Experiment 3: multiple oral dose study, serum FSH (DELFIA); details: healthy male volunteers, 4, 8, 16 mg q.d. or 12 mg b.i.d. oral
From the text: as §11, §12, §13, §14

testosterone [9] = test: Experiment 3: multiple oral dose study, serum testosterone (DELFIA)
From the text: as §11, §12
Freeze dried cake of compound 1 (Batch No. CW 186) was supplied in 10 mL vials (50 mg active entity in 10 mL vials). The freeze dried cake was reconstituted with sterile de-ionized water B.P and subsequently diluted with sterile de-ionized water to a dose volume of 50 mL. Compound 1 was administered as an oral solution (50 mL) according to the following schedule: • Group 1: a single dose of 4 mg compound 1 on day 1 followed by once daily dosing of 4 mg compound 1 on days 4 to 13 • Group 2: a single dose of 8 mg compound 1 on day 1 followed by once daily dosing of 8 mg compound 1 on days 4 to 13 • Group 3: a single dose of 16 mg compound 1 on day 1 followed by once daily dosing of 16 mg compound 1 on days 4 to 13 • Group 4: a single dose of 12 mg compound 1 on day 1, twice daily dosing of 12 mg compound 1 on days 4 to 12 followed by a single dose of 16 mg compound 1 on day 13
For group 5 a dose titration was used. In this group no samples for LH, FSH and testosterone were taken. […]
as §14

LH [10] = test: Experiment 4: single oral dose pharmacodynamic study, serum LH (DELFIA); details: healthy male volunteers, single oral doses 4, 8, 16 mg
From the text: (§15) A phase I, double-blind, parallel groups, placebo-controlled, cross-over, pharmacodynamic study with compound 1 in healthy male volunteers to assess glycinergic responses in cerebro-spinal fluid and plasma after single oral doses
(§16) This was a double-blind, placebo-controlled, parallel group trial in 15 subjects, randomized to 3 parallel groups of 5 subjects each. The subjects received two single doses in a randomized cross-over design. There was an interval of at least 3 days between the drug administrations. Subjects were male volunteers with a good physical and mental health, aged 18-45 years, body mass index 18-28 kg/m^2.
(§17) A freeze dried cake of compound 1 (Batch No CW122) was reconstituted with sterile water and subsequently further diluted with orange juice to a total volume of 200 mL for oral administration. Dose levels used were: • Group 1: 8 mg compound 1 and […] • Group 2: 16 mg compound 1 and placebo • Group 3: 8 mg compound 1 and 4 mg compound 1
(§18) Serum samples for LH, FSH and testosterone analysis were taken at time points: pre-dose and 1, 2, 3, 4, 6 and 12 hours post dose. Serum was stored at −40° C.
as §3

FSH [11] = test: Experiment 4: single oral dose pharmacodynamic study, serum FSH (DELFIA); details: healthy male volunteers, single oral doses 4, 8, 16 mg
From the text: as §15, §16, §17, §18, §3

testosterone [12] = test: Experiment 4: single oral dose pharmacodynamic study, serum testosterone (DELFIA); details: healthy male volunteers, single oral doses 4, 8, 16 mg
From the text: as §15, §16, §17, §18, §3

[13] = 0-24 h, compared with adjusted Cmin
[14] = decrease generally largest after 16 mg

## COc1ccc2c(c1)CC[C@H](CN(C)CC(=O)O)[C@@H]2c1ccccc1.Cl [compound 1]
LH [1]
  treatment effect on LH levels (decrease): statistically significant treatment effect
FSH [2]
  FSH concentrations, linear contrast on dose: significant linear decreases with rising doses
Testosterone [3]
  testosterone concentrations, linear contrast on dose: significant linear decreases with rising doses
LH [4]
  adjusted Cmin LH: decrease with increasing active dose
  time of largest LH decrease post dose: approximately 4 h
LH [4]; [13]
  adjusted Cmean LH: decreases are smaller and less consistent
LH [4]; decreases larger at increasing doses
  LH concentrations after treatment: decrease after compound 1 treatment
FSH [5]
  adjusted Cmin FSH: decrease with increasing active dose
  effect on FSH concentrations: not clearly visible
FSH [5]; [13]
  adjusted Cmean FSH: decreases are smaller and less consistent
Testosterone [6]
  adjusted Cmin Testosterone: decrease with increasing active dose
Testosterone [6]; [13]
  adjusted Cmean testosterone: decreases are smaller and less consistent
Testosterone [6]; decreases larger at increasing doses, somewhat slower than LH
  testosterone concentrations after treatment: decrease after compound 1 treatment
LH [7]
  time of maximum decreases in LH after dosing: 2 h
LH [7]; [14]
  mean LH values: decreased following dosing
FSH [8]
  time of maximum decrease in FSH values post-dose: 6 to 12 h
FSH [8]; [14]
  mean FSH values: decreased following dosing
Testosterone [9]; healthy male volunteers, 4, 8, 16 mg q.d. or 12 mg b.i.d. oral
  time post-dose until which testosterone levels dropped: 6 to 12 h
Testosterone [9]; healthy male volunteers, 4, 8, 16 mg q.d. or 12 mg b.i.d. oral, partly circadian rhythm, afterwards back to approximately baseline
  testosterone levels after dosing: dropped sharply after dosing
Testosterone [9]; largest decreases in the 16 mg q.d. and 12 mg b.i.d groups
  magnitude of the testosterone decrease compared with placebo: generally larger following administration of compound 1
LH [10]
  LH suppression: suppressed to some extent
FSH [11]
  effect on FSH: No effect
Testosterone [12]
  testosterone suppression: suppressed to some extent
